Results published in ChEMBL document CHEMBL4152332, “Discovery and synthesis of novel magnolol derivatives with potent anticancer activity in non-small cell lung cancer” (Eur J Med Chem, 2018).
In brackets after ≈: the same amount, converted by molar mass.

Experiments:
A549 = test: Antiproliferative activity against human A549 cells after 72 hrs by MTT assay; type: functional, cell-based; conditions: A549, 72 h
[1] = Antiproliferative activity against human SPC-A1 cells after 72 hrs by MTT assay; type: functional, cell-based; conditions: SPCA1, 72 h
NCI-H358 = test: Antiproliferative activity against human NCI-H358 cells after 72 hrs by MTT assay; type: functional, cell-based; conditions: NCI-H358, 72 h
Mus musculus [2] = test: Toxicity in Balb/c mouse implanted with mouse C26 cells assessed as mouse death at 100 mg/kg, po qd treated for 10 days; type: organism-based; conditions: in vivo, 240 h
NCI-H1975 [3] = test: Induction of apoptosis in human NCI-H1975 cells assessed as early apoptotic cells at 10 uM after 48 hrs by annexin V/FITC-propidium iodide staining-based flow cytometric method ( Rvb = 6.09%); type: functional
NCI-H1975 [4] = test: Cell cycle arrest in human NCI-H1975 cells assessed as accumulation at G0/G1 phase at 10 uM after 24 hrs by propidium iodide staining-based flow cytometric analysis (reference value: 56.11%); type: functional
NCI-H1975 [5] = test: Cell cycle arrest in human NCI-H1975 cells assessed as accumulation at G2/M phase at 5 uM after 24 hrs by propidium iodide staining-based flow cytometric analysis (reference value: 20.11%); type: functional
NCI-H1975 [6] = test: Induction of apoptosis in human NCI-H1975 cells assessed as viable cells at 20 uM after 48 hrs by annexin V/FITC-propidium iodide staining-based flow cytometric method ( Rvb = 82.5%); type: functional; conditions: NCI-H1975, 48 h, read-out: Activity
HCC827 [7] = test: Potency index, ratio of IC50 for magnolol to IC50 for test compound for antiproliferative activity against human HCC827 cells after 72 hrs by MTT assay; type: functional
NCI-H1975 [8] = test: Induction of apoptosis in human NCI-H1975 cells assessed as late apoptotic cells at 5 uM after 48 hrs by annexin V/FITC-propidium iodide staining-based flow cytometric method ( Rvb = 10.4%); type: functional
NCI-H1975 [9] = test: Induction of apoptosis in human NCI-H1975 cells assessed as late apoptotic cells at 10 uM after 48 hrs by annexin V/FITC-propidium iodide staining-based flow cytometric method ( Rvb = 10.4%); type: functional
NCI-H1975 [10] = test: Cell cycle arrest in human NCI-H1975 cells assessed as accumulation at G2/M phase at 10 uM after 24 hrs by propidium iodide staining-based flow cytometric analysis (reference value: 20.11%); type: functional
NCI-H1975 [11] = test: Induction of apoptosis in human NCI-H1975 cells after 48 hrs by annexin V/FITC-propidium iodide staining-based flow cytometric method; type: functional, cell-based
NCI-H1975 [12] = test: Induction of apoptosis in human NCI-H1975 cells assessed as necrotic cells at 10 uM after 48 hrs by annexin V/FITC-propidium iodide staining-based flow cytometric method ( Rvb = 1.01%); type: functional
[13] = Antitumor activity against mouse C26 cells implanted in Balb/c mouse assessed as tumor growth inhibition at 100 mg/kg, po qd and measured every 2 days relative to control; type: functional; conditions: 48 h, read-out: TGI
NCI-H1975 [14] = test: Induction of apoptosis in human NCI-H1975 cells assessed as necrotic cells at 20 uM after 48 hrs by annexin V/FITC-propidium iodide staining-based flow cytometric method ( Rvb = 1.01%); type: functional
NCI-H1975 [15] = test: Cell cycle arrest in human NCI-H1975 cells assessed as increase in accumulation at G0/G1 phase after 24 hrs by propidium iodide staining-based flow cytometric analysis; type: functional
NCI-H1975 [16] = test: Induction of apoptosis in human NCI-H1975 cells assessed as necrotic cells at 5 uM after 48 hrs by annexin V/FITC-propidium iodide staining-based flow cytometric method ( Rvb = 1.01%); type: functional
NCI-H1975 [17] = test: Induction of apoptosis in human NCI-H1975 cells assessed as late apoptotic cells at 20 uM after 48 hrs by annexin V/FITC-propidium iodide staining-based flow cytometric method ( Rvb = 10.4%); type: functional
NCI-H1975 [18] = test: Potency index, ratio of IC50 for magnolol to IC50 for test compound for antiproliferative activity against human NCI-H1975 cells after 72 hrs by MTT assay; type: functional
NCI-H1975 [19] = test: Cell cycle arrest in human NCI-H1975 cells assessed as accumulation at G0/G1 phase at 20 uM after 24 hrs by propidium iodide staining-based flow cytometric analysis (reference value: 56.11%); type: functional
NCI-H1975 [20] = test: Cell cycle arrest in human NCI-H1975 cells assessed as accumulation at S phase at 10 uM after 24 hrs by propidium iodide staining-based flow cytometric analysis (reference value: 22.93%); type: functional
HCC827 [21] = test: Antiproliferative activity against human HCC827 cells after 72 hrs by MTT assay; type: functional, cell-based; conditions: HCC827, 72 h
NCI-H1975 [22] = test: Cell cycle arrest in human NCI-H1975 cells assessed as reduction in accumulation at G2/M phase after 24 hrs by propidium iodide staining-based flow cytometric analysis; type: functional
Mus musculus [23] = test: Toxicity in Balb/c mouse implanted with mouse C26 cells assessed as change in body weight at 100 mg/kg, po qd treated for 10 days and measured every 2 days (RVB = 16.4%); type: organism-based; conditions: in vivo
NCI-H460 [24] = test: Antiproliferative activity against human H460 cells after 72 hrs by MTT assay; type: functional, cell-based; conditions: NCI-H460, 72 h
NCI-H1975 [25] = test: Cell cycle arrest in human NCI-H1975 cells assessed as accumulation at S phase at 20 uM after 24 hrs by propidium iodide staining-based flow cytometric analysis (reference value: 22.93%); type: functional
NCI-H1650 = test: Antiproliferative activity against human NCI-H1650 cells after 72 hrs by MTT assay; type: functional, cell-based; conditions: NCI-H1650, 72 h
NCI-H1975 [26] = test: Antiproliferative activity against human NCI-H1975 cells after 72 hrs by MTT assay; type: functional, cell-based; conditions: NCI-H1975, 72 h
NCI-H441 = test: Antiproliferative activity against human H441 cells after 72 hrs by MTT assay; type: functional, cell-based; conditions: NCI-H441, 72 h
[27] = Apparent aqueous solubility of the compound by HPLC analysis; type: physicochemical; conditions: aqueous solution
NCI-H1975 [28] = test: Induction of apoptosis in human NCI-H1975 cells assessed as viable cells at 10 uM after 48 hrs by annexin V/FITC-propidium iodide staining-based flow cytometric method ( Rvb = 82.5%); type: functional; conditions: NCI-H1975, 48 h, read-out: Activity
NCI-H1975 [29] = test: Potency index, ratio of IC50 for honokiol to IC50 for test compound for antiproliferative activity against human NCI-H1975 cells after 72 hrs by MTT assay; type: functional
NCI-H1975 [30] = test: Induction of apoptosis in human NCI-H1975 cells assessed as early apoptotic cells at 20 uM after 48 hrs by annexin V/FITC-propidium iodide staining-based flow cytometric method ( Rvb = 6.09%); type: functional
NCI-H1975 [31] = test: Cell cycle arrest in human NCI-H1975 cells assessed as accumulation at S phase at 5 uM after 24 hrs by propidium iodide staining-based flow cytometric analysis (reference value: 22.93%); type: functional
HCC827 [32] = test: Potency index, ratio of IC50 for honokiol to IC50 for test compound for antiproliferative activity against human HCC827 cells after 72 hrs by MTT assay; type: functional
NCI-H1975 [33] = test: Induction of apoptosis in human NCI-H1975 cells assessed as early apoptotic cells at 5 uM after 48 hrs by annexin V/FITC-propidium iodide staining-based flow cytometric method ( Rvb = 6.09%); type: functional
HUVEC = test: Antimigratory activity against HUVEC after 24 to 48 hrs by phase contrast/fluorescence microscopic analysis; type: functional, cell-based; conditions: Homo sapiens
NCI-H1975 [34] = test: Induction of apoptosis in human NCI-H1975 cells assessed as viable cells at 5 uM after 48 hrs by annexin V/FITC-propidium iodide staining-based flow cytometric method ( Rvb = 82.5%); type: functional; conditions: NCI-H1975, 48 h, read-out: Activity
NCI-H460 [35] = test: Potency index, ratio of IC50 for honokiol to IC50 for test compound for antiproliferative activity against human H460 cells after 72 hrs by MTT assay; type: functional
NCI-H460 [36] = test: Potency index, ratio of IC50 for magnolol to IC50 for test compound for antiproliferative activity against human H460 cells after 72 hrs by MTT assay; type: functional
NCI-H1975 [37] = test: Cell cycle arrest in human NCI-H1975 cells assessed as reduction in accumulation at S phase after 24 hrs by propidium iodide staining-based flow cytometric analysis; type: functional
PC-9 = test: Antiproliferative activity against human PC9 cells after 72 hrs by MTT assay; type: functional, cell-based; conditions: PC-9, 72 h
NCI-H1975 [38] = test: Cell cycle arrest in human NCI-H1975 cells assessed as accumulation at G0/G1 phase at 5 uM after 24 hrs by propidium iodide staining-based flow cytometric analysis (reference value: 56.11%); type: functional
NCI-H1975 [39] = test: Cell cycle arrest in human NCI-H1975 cells assessed as accumulation at G2/M phase at 20 uM after 24 hrs by propidium iodide staining-based flow cytometric analysis (reference value: 20.11%); type: functional

C=CCc1ccc(O)c(-c2cc(CC=C)cc(CN3CCN(CCOC)CC3)c2O)c1
IC50 (A549): 7.89 µM
IC50 [1]: 7.27 µM
IC50 (NCI-H358): 7.49 µM
Activity (Mus musculus [2]): Non-Toxic
Activity (NCI-H1975 [3]): 8.79%
Activity (NCI-H1975 [4]): 66.25%
Activity (NCI-H1975 [5]): 18.05%
viability at 20 µM (NCI-H1975 [6]): 22.9%
Ratio IC50 (HCC827 [7]): 8
Activity (NCI-H1975 [8]): 22.8%
Activity (NCI-H1975 [9]): 22.5%
Activity (NCI-H1975 [10]): 11.15%
Activity (NCI-H1975 [11]): Dose-dependent effect
Activity (NCI-H1975 [12]): 0.31%
inhibition in vivo at 100 mg/kg [13]: 4.14%
Activity (NCI-H1975 [14]): 0.9%
Activity (NCI-H1975 [15]): Dose-dependent effect
Activity (NCI-H1975 [16]): 0.47%
Activity (NCI-H1975 [17]): 51.1%
Ratio IC50 (NCI-H1975 [18]): 8
Activity (NCI-H1975 [19]): 69.91%
Activity (NCI-H1975 [20]): 21.85%
IC50 (HCC827 [21]): 6.8 µM
Activity (NCI-H1975 [22]): Dose-dependent effect
Activity (Mus musculus [23]): 12.4%
IC50 (NCI-H460 [24]): 5.92 µM
Activity (NCI-H1975 [25]): 11.17%
IC50 (NCI-H1650): 5.12 µM
IC50 (NCI-H1975 [26]): 7.12 µM
IC50 (NCI-H441): 10.2 µM
solubility [27]: 120 µg/mL (≈ 284 µM)
viability at 10 µM (NCI-H1975 [28]): 68.4%
Ratio IC50 (NCI-H1975 [29]): 4
Activity (NCI-H1975 [30]): 25.1%
Activity (NCI-H1975 [31]): 17.71%
Ratio IC50 (HCC827 [32]): 4
Activity (NCI-H1975 [33]): 6.13%
Activity (HUVEC): Dose-dependent effect
viability at 5 µM (NCI-H1975 [34]): 72.6%
Ratio IC50 (NCI-H460 [35]): 4
Ratio IC50 (NCI-H460 [36]): 8
Activity (NCI-H1975 [37]): Dose-dependent effect
IC50 (PC-9): 13.5 µM
Activity (NCI-H1975 [38]): 61.59%
Activity (NCI-H1975 [39]): 16.86%
